US20080119549A1, “METABOLICALLY-[…] FATTY ACID AMIDE HYDROLASE” (N.V. Organon, priority 2006, published 2008)

Assays:
[1] = biological target: T1, FAAH (Homo sapiens, UniProt O00519); assay: FAAH LC-MS/MS screening assay (anandamide hydrolysis by human liver microsomes); details: inhibitor at 30 nM, 60 minute incubation at 37° C.
T1 sequence (O00519 1-579): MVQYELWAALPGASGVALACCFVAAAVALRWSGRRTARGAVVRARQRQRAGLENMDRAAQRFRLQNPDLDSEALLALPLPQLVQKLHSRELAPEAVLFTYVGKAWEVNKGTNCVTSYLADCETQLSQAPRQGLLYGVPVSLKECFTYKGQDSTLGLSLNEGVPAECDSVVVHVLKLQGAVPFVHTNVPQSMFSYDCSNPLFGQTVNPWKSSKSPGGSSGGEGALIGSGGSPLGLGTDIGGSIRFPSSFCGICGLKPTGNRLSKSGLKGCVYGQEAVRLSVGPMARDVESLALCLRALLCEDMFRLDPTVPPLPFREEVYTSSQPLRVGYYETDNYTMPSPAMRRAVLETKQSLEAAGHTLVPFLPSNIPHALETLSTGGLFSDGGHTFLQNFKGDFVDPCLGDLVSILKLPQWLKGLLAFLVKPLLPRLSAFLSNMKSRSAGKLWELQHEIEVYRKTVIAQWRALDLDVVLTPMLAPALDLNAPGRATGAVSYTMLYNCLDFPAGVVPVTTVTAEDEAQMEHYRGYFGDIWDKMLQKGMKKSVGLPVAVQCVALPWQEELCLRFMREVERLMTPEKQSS
Experimental: The following are combined in a 5-mL glass tube: anandamide (5 μL of 200 ug/mL), 960 μL of 50 mM ammonium phosphate buffer (pH 7.4) containing 0.125% BSA (w/v), 10 μL of DMSO without (control) or with a FAAH inhibitor (1 μg/mL), and 25 μL of human liver microsomes (31.3/g). Prior to incubation, a 100 μL aliquot is transferred to a 96-well plate containing 0.25 mL of acetonitrile and D4 (deuterated) anandamide (0.2 #M). Each 5-mL tube is capped and placed in a shaking water bath maintained at 37° C. for 60 minutes. After a 60 minute incubation, a second 100 μL aliquot is transferred to a 96-well plate as performed earlier. The 96-well plate is then capped, vortex mixed, and placed on an HPLC for liquid chromatography/tandem mass spectrometry (LC/MS/MS) analyses. HPLC is carried out on a Waters 2790 Alliance system (Milford, Mass.). […] The samples are analyzed using an electrospray probe in the positive ionization mode with the cone voltage set at 40 V and capillary at 3.2 kV. […] An area ratio response (anandamide area response/D4 anandamide area response) was determined for each sample. Percent anandamide hydrolysis of each sample is determined by the following equation, [(T=0 response)−(T=60 response)/T=0 response]*100. The percent hydrolysis normalized to control is determined by dividing the % hydrolysis of test sample by the % hydrolysis of the control sample.

[2] = Metabolic stability in human liver S9 fractions (half-life in vitro); format: in vitro ADME; details: pH 7.2, Human S9 ½ life in-vitro, read-out: half-life in human S9 cells
Experimental: Generally, a FAAH inhibitor was incubated in human liver S9 fractions. Incubations were conducted at 37° C. in a potassium phosphate buffer (pH 7.2). NADPH and a regenerating system consisting of NADP, glucose 6-phosphate dehydrogenase were provided to the incubates. Incubations were terminated by the addition of methanol and freezing at −80° C. See, e.g., Singh, R. et al. Rapid Commun. Mass Spectrom., 10: 1019-26 (1996).

Structure (SMILES)	anandamide hydrolysis compared to the control [1] [%]	half-life [2] [min]
CC1(C)CCC(NC(=O)Oc2cccc(-c3cccc(C(N)=O)c3)c2)CC1 [Example 1, (4,4-dimethylcyclohexyl)carbamic acid 3′carbamoylbiphenyl-3-yl ester]	< 50	–
NC(=O)c1cccc(-c2cccc(OC(=O)NC3CCCCC3)c2)c1 [KDS-4103]	30	~30
